Data on four compounds can be found in US6280725A, “Compositions and methods for inhibiting the growth of fungi” (Lipton, division of Conopco, Inc., priority 2000, dated 2001).

Holding throughout (assay type): cell-based
Assay [1] has as its system Saccharomyces cerevisiae wild type strain SU-50. The experiment in a line: Growth inhibition (growth curves) of wild type yeast SU-50. To be noted: for effect on growth of SU50: 25 mM sugar with 25 μM MB21, 100 cells per ml, vs reference and MB21 alone, effect if any, FIG. 5a. How it is done:
(§1) For examples 2, and 4-9 grow-curves were recorded at 25° C. using a microbiology growth reader (Bioscreen C, ex Labsystems). For example 3, growth curve was determined as turbidity, measured by hand at a wave length of 660 nm (OD 660).
a) Saccharomyces cerevisiae strain SU-50 was cultivated in YEPD medium, supplemented with 2% glucose.
b) Growth curves were obtained with the strain SU-50. The cells (about 10 per ml) were cultured in YEPD at 25° C. in the presence or absence of β-gentiobiose or pustulan fragments and MB-21, by using a 24 well plate at room temperature with continuous shaking on a micro-titre plate shaker (mark 4) or a microbiology growth reader (Bioscreen C).
Three YEPD media were prepared, one without MB21, the other YEPD media contained 10 μM MB21 and 20 μM MB21, respectively. To these media β-gentiobiose was added in concentrations of 0, 50, 100 and 200 mM. The yeast strain SU50 was inoculated in these media in a concentration of 10 cells per ml, and cultivated in a 24 well plate at 25° C. Samples were taken from a 24 well plate at regular time intervals, diluted sixty times with distilled water and measured at 660 nm to construct the growth curves.
This example illustrates a relationship between the length of the β-(1,6)-glucan fragments and their effectiveness in competition.
(§2) In this example, three strains are grown in various media in the fashion of example 3, with the exception of being inoculated in the media in a concentration of 100 cells per ml. The sugars used are all comparatives: laminaribiose (β-1,3)-linked D-glucose), sucrose (having a 1,2 link), and sorbitol.
In this example, strain SU 50 was grown three media (see table 2) in the fashion of example 3, with the exception of being inoculated in the media in a concentration of 100 cells per ml.

Assay [2] deals with Zygosaccharomyces bailii G1. The experiment in a line: Growth curves / relative inhibition of strain G1. To be noted: 200 mM sugar with 6 μM MB21, 100 cells per ml, vs reference and MB21 alone; effect if any; FIG. 5c. The procedure:
as §1
d) Zygosaccharomyces bailii G1: as SU-50 above.
as §2
In this example, strain G1 was grown three media (see table 4) in the fashion of example 3, with the exception of being inoculated in the media in a concentration of 100 cells per ml.
In this example, strain G1 was grown in the fashion of example 3 (with the exception of being inoculated in the media in a concentration of 100 cells per ml) in the presence of 6 μM MB21 and 50 mM of a β-(1,6)-glucan. Experiments were done with short-chain β-(1,6)-glucan of variable chain length.

The test system of assay [3] is Zygosaccharomyces bailii ZB (NCYC 563). The experiment in a line: Growth curves of strain ZB. The settings on record: 200 mM sugar with 6 μM MB21, 100 cells per ml, vs reference and MB21 alone; effect if any; FIG. 5b. How it is done:
as §1
c) Zygosaccharomyces bailii ZB: as SU-50 above.
as §2
In this example, strain ZB was grown three media (see table 3) in the fashion of example 3, with the exception of being inoculated in the media in a concentration of 100 cells per ml.

In assay [4] the test system is Saccharomyces cerevisiae strain SU52-pUR5801. The experiment in a line: Cell wall protein release test (α-galactosidase-CWP2p secretion into medium). To be noted: FIG. 1. How it is done: b) Saccharomyces cerevisiae strain SU52-pUR5801 was cultivated in Difco yeast nitrogen base (YNB), supplemented with 2% glucose and 0.004% histidine. After the culture had reached the late log-phase, the cells were cultivated further (a 10% inoculum) in YEPD medium, consisting of 1% Difco yeast extract, 2% Bacto-peptone, supplemented with 0.5% glucose and 5% galactose.
a) Saccharomyces cerevisiae strain SU52-pUR 5801 was grown in YNB and YEPD media, at 30° C. with shaking at 225 rpm in an orbital incubator until a OD (660 nm) between 5 and 6 was reached. In parallel experiments several concentrations of β-gentiobiose or pustulan fragments were included in the media. After cultivation, the media were separated from the cells by centrifugation (10.000×g for 15 min at 4° C.). The media were then filtered using […] filters. Secretion of α-(-galactosidase-CWP2p was assessed by measuring α-(-galactosidase enzyme activity in the media (see further on). […]
β-Gentiobiose was dissolved in YEPD media supplemented with 5% galactose, in concentrations of 10, 50 and 100 mM respectively. […] The enzyme activity of the fusion protein CWP2-α-galactosidase was measured as described in the α-galactosidase assay.

Each structure is given as a SMILES string.

Turning to `OC[C@H]1O[C@@](CO)(O[C@H]2O[C@H](CO)[C@@H](O)[C@H](O)[C@H]2O)[C@@H](O)[C@@H]1O` [sucrose], in assay [1], the “effect on growth of SU50” value was “stimulating effect”. Moreover, the “effect on growth of G1” value in assay [2] was “stimulating effect”. Besides, in assay [3], the “effect on growth of ZB” value is given as “stimulating effect”.
As to `OC[C@H]1O[C@@H](O[C@H]2[C@H](O)[C@@H](CO)OC(O)[C@@H]2O)[C@H](O)[C@@H](O)[C@@H]1O` (stereo partly shown) [laminaribiose], the “effect on growth of SU50” value in assay [1] was “stimulating effect”.
Regarding `OC[C@H]1O[C@@H](OC[C@H]2O[C@@H](O)[C@H](O)[C@@H](O)[C@@H]2O)[C@H](O)[C@@H](O)[C@@H]1O` [β-gentiobiose, 6-O-β-glucopyranosyl-β-D-glucose], the “influence on the growth of SU-50” value in assay [1] (β-gentiobiose as such (0, 50, 100, 200 mM, no MB21), 10 cells per ml, 25° C., OD 660, FIG. 3) is recorded as “no influence”. In addition, in assay [4] (at least up to 100 mM β-gentiobiose), the “relationship between concentration and secretion of the fusion construct” value is reported as “linear relationship”. Further, the “secretion (release) of the fusion protein α-galactosidase-CW2p from the cell wall” value in assay [4] (β-gentiobiose 10, 50 and 100 mM in YEPD with 5% galactose, 30° C., 18 hours) is recorded as “concentration dependent”.
As for `OC[C@@H](O)[C@@H](O)[C@H](O)[C@@H](O)CO` [sorbitol], the “effect on growth of SU50” value in assay [1] is recorded as “stimulating effect”. For the same compound, the “effect on growth of G1” value in assay [2] is on record as “stimulating effect”. In assay [3], the “effect on growth of ZB” value is “stimulating effect”.
